Values quoted from earlier work, collected in patent US20110052581A1 (Poniard Pharmaceuticals Inc., priority 2008, published 2011).

Test system: patients with advanced colorectal cancer
Conditions: single agent therapy

Row | Structure (SMILES) | median survival | progression-free survival (median) | response rate
1 | CCc1c2c(nc3ccc(OC(=O)N4CCC(N5CCCCC5)CC4)cc13)-c1cc3c(c(=O)n1C2)COC(=O)[C@]3(O)CC [irinotecan] | ~12 months | 4.3 months | 18%
2 | O=C1[O][Pt]2([NH][C@@H]3CCCC[C@H]3[NH]2)[O]C1=O [oxaliplatin] | – | 4.0 months | 12%
